Test results published in patent US9180163B2, “Parstatin peptides” (priority 2009, dated 2015).

Legend:
[1] = system: choroidal neovascularization in C57BL/6J mice; type: in vivo; settings: 10 μg intravitreal after laser and day 7; assessed day 14; vs vehicle (PBS or DMSO)
Procedure: Parstatin (1-41), hydrophobic parstatin (1-26) fragment and hydrophilic parstatin (24-41) fragment were used in an in vivo mouse model of choroidal neovascularization. In particular, laser photocoagulation-induced rupture of Bruch's membrane was used to generate choroidal neovascularization as a preclinical disease model for age-related macular degeneration. Pathogen-free C57BL/6J (4-5 week-old) mice were treated in accordance with the Association for Research in Vision and Ophthalmology Statement for the Use of Animals in Ophthalmic and Vision Research and the guidelines of the Animal Care and Use Committee at local University Medical School.
C57BL/6J (4-5 week-old) mice were anesthetized with ketamine hydrochloride (100 mg/kg body weight) and xylazine-(4 mg/Kg body weight) and the pupils were dilated with 1% tropicamide. Laser photocoagulation (75 μm spot size, 0.1 sec duration, 120 mW) was performed in the 9, 12, and 3 o'clock positions of the posterior pole of the retina with the slit lamp delivery system of an Oculight GL diode laser (Index, Mountain View, Calif.) and a handheld cover slip as a contact lens to view the retina. Production of a bubble at the time of laser, which indicates rupture of Bruch's membrane, is an important factor in obtaining CNV. Therefore, only burns in which a bubble was produced were included in the study. Two weeks after rupture of Bruch's membrane, anesthetized mice were perfused with 50 mg/ml fluorescein-labelled-dextran (2×10^6 average molecular weight, Sigma-Aldrich, St. Louis, Mo.). The eyes were then dissected and fixed in 10% Formalin for 3 hours and choroidal flat mounts were examined by fluorescence microscopy. Image-Pro Plus software (Media Cybernetics, Silver Spring, Md.) was used to measure the total area of CNV at each rupture site by personnel blinded as to study treatments and groups.
Intraocular injections of parstatin peptides were performed with a Harvard pump microinjection apparatus and pulled glass micropipets. […] Choroidal neovascularization was assessed 14 days after laser treatment.

[2] = system: corneas of Sprague-Dawley rats; assay: corneal histopathology after chemical burn (vessels, neutrophils); type: in vivo, rat; settings: 2×50 μg, day 7
Procedure: After the above-described processes were performed, the rats were sacrificed (7 days) and the eyes were excised. All eyes were sectioned (4 μm) and stained with hematoxylin-eosin. Two independent pathologists, in a blinded manner, evaluated the microvessel density and the inflammatory cell infiltration in each slide. Total corneal vascular vessels and neutrophils were counted at 200× in seven representative stained tissue sections for each eye, covering all cornea area and having a similar distance from the central burn.

[3] = system: VEGF-induced retinal leukostasis in C57BL/6J mice; assay: VEGF-induced retinal leukostasis model; type: in vivo, mouse; settings: for reduction of firmly adhering leukocytes vs VEGF-treated controls: 5 μg co-injected with VEGF; for firmly adhering leukocytes: 5 μg co-injected with VEGF (10 μM), 6 h
Procedure: Inflammatory leukocyte accumulation is a common feature of major ocular diseases. […] VEGF, which is a potent chemoattractant for leukocytes, is increased in ischemic retina and is necessary for retinal neovascularization to occur. Parstatin (1-41), hydrophobic parstatin (1-26) fragment and hydrophilic parstatin (24-41) fragment were used in an in vivo mice model of VEGF-induced retinal leukostasis.
C57BL/6J (4-5 week-old) mice were anesthetized with ketamine hydrochloride (100 mg/kg body weight) and xylazine (4 mg/Kg body weight) and the pupils were dilated with 1% tropicamide. Intravitreal injections of 1 μl solutions of 10 μM VEGF, which is the optimal concentration for promoting leukostasis, or parstatin (1-41) or parstatin (24-41) in phosphate buffered saline (PBS) or PBS alone or the combinations were administered. Also, intravitreal injections of 1 μl solutions of parstatin (1-26) in dimethyl sulphoxide (DMSO) or DMSO alone were administered to assess leukostasis. Six hours after intravitreal injections, which was the optimal time determined for VEGF-induced leukostasis, animals were perfused with PBS to remove intravascular content, including nonadherent leukocytes. Perfusion with FITC-conjugated Concanavalin A (40 μg/ml in PBS, Vector Labs, Burlingame, Calif.) was then performed to label adherent leukocytes and vascular endothelial cells, followed by removal of residual unbound lectin with PBS perfusion. Retinal flat mounts were prepared and examined with the Axioskop microscope and images were digitized. The total numbers of leukocytes adhering to the retinal vessels were counted at 200× by the same investigator, with the investigator being masked as to the nature of the specimen.

Question: What does the source list for “MGPRRLLLVAACFSLCGPLLSARTRA (listed as Homo sapiens) [parstatin (1-26)]”?
Answer: inhibition of choroidal neovascularization [1]: 62%; inhibition of corneal mean number of vascular vessels [2]: 55%; inhibition of mean number of infiltrated neutrophils [2]: 71%; reduction of firmly adhering leukocytes vs VEGF-treated controls [3]: 59%; firmly adhering leukocytes [3]: 74±32 cells/retina

Question: What does the source list for “TRARRPESKATNATLDPR (listed as Homo sapiens) [parstatin (24-41), 24-41 (18 amino acids) of human parstatin, hydrophilic fragment]”?
Answer: inhibition of choroidal neovascularization [1]: 77%; inhibition of corneal mean number of vascular vessels [2]: 68%; inhibition of mean number of infiltrated neutrophils [2]: 75%; reduction of firmly adhering leukocytes vs VEGF-treated controls [3]: 55%; firmly adhering leukocytes [3]: 81±21 cells/retina
